Results published in patent US20230243812A1, “[…] TISSUE […] METHODS FOR FORMATION AND USE THEREOF” (President and Fellows of Harvard College, priority 2022, published 2023).
“Also recorded” adds a separate entry of the source.

System: muscular bilayer tissues of biohybrid fish (human stem cell-derived CMs)
Test: Antagonistic contraction and swimming performance of self-paced biohybrid fish treated with stretch-activated channel blockers
Assay type: cell-based
Settings: for Spontaneous frequencies of treated muscular bilayer tissues (frequency-domain analysis of tail-beat angle) / Empirical probability of antagonistic contraction / Moving (swimming) speed: 250 μM streptomycin or 100 μM Gd3+; for Spontaneous frequencies of treated muscular bilayer tissues (frequency-domain analysis of tail-beat angle): power spectral density; for Empirical probability of antagonistic contraction / Moving (swimming) speed: self-paced biohybrid fish, at least 24 hours
Method: The biohybrid fish was placed in Tyrode's solution (1.8 mM CaCl2, 5 mM glucose, 5 mM Hepes, 1 mM MgCl2, 5.4 mM KCl, 135 mM NaCl, and 0.33 mM NaH2PO4 in deionized water, pH 7.4, at 37° C.; Sigma Aldrich, St. Louis, Mo.) in a 22 cm square chamber (VWR International, Radnor, Pa.) on a hotplate (VWR International, Radnor, Pa.) and temperature was maintained at 35° C. to 37° C. The recording of swimming performance of biohybrid fish was filmed with a sCMOS camera (Pco.edge, PCO AG, Germany) coupled with a zoom camera lens (Thorlabs Inc, Newton, N.J.) at 50 frames per second or a single-lens recorder (AXP55 4K Handycam, Sony, Japan) with a 26.8 mm wide-angle lens at 50 frames per second.
To check the effect of mechanical signaling on the antagonistic contraction of muscular bilayer tissues, the biohybrid fish were treated with 250 μM streptomycin or 100 μM Gd^3+ (both from Sigma-Aldrich, St. Louis, Mo.) before recording, streptomycin or Gd^3+ for at least 24 hours.
Digital videos recorded during locomotion experiments were converted to image stacks using a custom-made Matlab program (24) (R2020b, Mathworks, Natick, Mass.). The head, body, and tail positions of the biohybrid fish were tracked using an image processing software (ImageJ, NIH, Bethesda, Md.). The moving distance of the biohybrid fish was measured during each tail-beat cycle, and the swimming speed was calculated by dividing the cumulative distance travelled by the total time. Tail-beat amplitude was measured as the distance between maximum right and left excursions. Tail-beat angle (θ) was calculated as the body angle difference between chord lines of its anterior body and caudal fin at the maximum right and left excursions. Antagonistic contraction was determined by checking whether a muscle contraction induced the subsequent contraction of the opposite side muscle with any delay or not. The empirical probability of antagonistic contraction was determined by dividing the number of antagonistic contractions by the total number of contractions.

[1] = after Gd3+ treatment versus before

SMILES	Spontaneous frequencies of treated muscular bilayer tissues (frequency-domain analysis of tail-beat angle)	Reduction in Re (Reynolds number) [1]	Reduction in Sw (Swimming number) [1]	Empirical probability of antagonistic contraction	Moving (swimming) speed	Empirical probability of antagonistic contraction (listed as Gd3+)
[Gd+3] [Gd^3+, gadolinium]	not harmonic	80.8%	40.6%	disrupted antagonistic contraction; also recorded: sensitive; also recorded: significantly decreased	reduced	reduced the chance of antagonistic muscle contraction
[H]/N=C(/N)N[C@H]1[C@H](O)[C@@H](O)[C@H](O[C@@H]2O[C@@H](C)[C@](O)(C=O)[C@H]2O[C@@H]2O[C@@H](CO)[C@H](O)[C@@H](O)[C@@H]2NC)[C@@H](N/C(N)=N\[H])[C@@H]1O [streptomycin]	not harmonic	–	–	disrupted antagonistic contractions; also recorded: sensitive; also recorded: reduced the chance of antagonistic muscle contraction; also recorded: significantly decreased	reduced	–
